Experimental data from ChEMBL document CHEMBL1201862, “PubChem BioAssay data set” (2004).
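96-well plates; 48 h exposure; 5 concentrations. Endpoints by linear interpolation between flanking doses. Not reached: highest tested concentration assigned. At the GI50, growth is halved.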 Calls of active or inactive are those of the source. Rule as the data show it: active = GI50 up to about 1.1 µM and inactive = higher.

Columns and labels:
Test in all cases: NCI-60 cell line screen, 48 h
786-0 = test system: 786-0
A498 = test system: A498
A549 = test system: A549
ACHN = test system: ACHN
BT-549 = test system: BT-549
COLO 205 = test system: COLO 205
HCT-116 = test system: HCT-116
HOP-62 = test system: HOP-62
HOP-92 = test system: HOP-92
HT-29 = test system: HT-29
KM12 = test system: KM12
MDA-MB-231 = test system: MDA-MB-231
NCI-H460 = test system: NCI-H460
NCI/ADR-RES = test system: NCI/ADR-RES
OVCAR-4 = test system: OVCAR-4
PC-3 = test system: PC-3
RPMI-8226 = test system: RPMI-8226
SF-539 = test system: SF-539
SN12C = test system: SN12C
SW-620 = test system: SW-620

| SMILES | GI50 (786-0) | GI50 (A498) | GI50 (A549) | GI50 (ACHN) | GI50 (BT-549) | GI50 (COLO 205) | GI50 (HCT-116) | GI50 (HOP-62) | GI50 (HOP-92) | GI50 (HT-29) | GI50 (KM12) | GI50 (MDA-MB-231) | GI50 (NCI-H460) | GI50 (NCI/ADR-RES) | GI50 (OVCAR-4) | GI50 (PC-3) | GI50 (RPMI-8226) | GI50 (SF-539) | GI50 (SN12C) | GI50 (SW-620) |
| --- | --- | --- | --- | --- | --- | --- | --- | --- | --- | --- | --- | --- | --- | --- | --- | --- | --- | --- | --- | --- |
| CN(C)CC/C=C1\c2ccccc2Sc2ccc(Cl)cc21 | 12.2 µM (inactive) | 14.3 µM (inactive) | 14.6 µM (inactive) | 15.8 µM (inactive) | 15.2 µM (inactive) | 14.2 µM (inactive) | 11.6 µM (inactive) | 14.4 µM (inactive) | 4.75 µM (inactive) | 4.19 µM (inactive) | 21 µM (inactive) | 13.6 µM (inactive) | 11.7 µM (inactive) | 13.8 µM (inactive) | 12.6 µM (inactive) | 12.8 µM (inactive) | 3.78 µM (inactive) | 19 µM (inactive) | 15.2 µM (inactive) | 16.3 µM (inactive) |
| C=C[C@@]1(C)CC(=O)[C@]2(O)[C@@]3(C)[C@@H](O)CCC(C)(C)[C@@H]3[C@H](O)[C@@H](OC(C)=O)[C@@]2(C)O1 | > 100 µM (inactive) | > 100 µM (inactive) | > 100 µM (inactive) | > 100 µM (inactive) | > 100 µM (inactive) | > 100 µM (inactive) | > 100 µM (inactive) | > 100 µM (inactive) | > 100 µM (inactive) | 68.7 µM (inactive) | 1.7 µM (inactive) | 6.18 µM (inactive) | > 100 µM (inactive) | > 100 µM (inactive) | > 100 µM (inactive) | > 100 µM (inactive) | 18.7 µM (inactive) | > 100 µM (inactive) | 57.7 µM (inactive) | > 100 µM (inactive) |
| O=c1ccn([C@@H]2C[C@H]2CO)c(=O)[nH]1 | > 100 µM (inactive) | > 100 µM (inactive) | > 100 µM (inactive) | > 100 µM (inactive) | > 100 µM (inactive) | > 100 µM (inactive) | > 100 µM (inactive) | > 100 µM (inactive) | > 100 µM (inactive) | > 100 µM (inactive) | > 100 µM (inactive) | > 100 µM (inactive) | > 100 µM (inactive) | > 100 µM (inactive) | > 100 µM (inactive) | > 100 µM (inactive) | > 100 µM (inactive) | > 100 µM (inactive) | > 100 µM (inactive) | > 100 µM (inactive) |
| Cc1n(-c2ccccc2)c2c([n+]1Cc1ccc([N+](=O)[O-])cc1)C(=O)c1ccccc1C2=O | 4.31 µM (inactive) | 12.2 µM (inactive) | 3.56 µM (inactive) | 3.72 µM (inactive) | 1.79 µM (inactive) | 1.59 µM (inactive) | 2.02 µM (inactive) | 6.5 µM (inactive) | 2.3 µM (inactive) | 2.38 µM (inactive) | 2.29 µM (inactive) | 1.59 µM (inactive) | 3.78 µM (inactive) | 2.05 µM (inactive) | 1.66 µM (inactive) | 2.25 µM (inactive) | 0.845 µM (active) | 1.97 µM (inactive) | 1.64 µM (inactive) | 2.12 µM (inactive) |
| Nc1nccc(NCC2(CO)CC(OCc3ccccc3)C2)n1 (stereo not given) | > 100 µM (inactive) | > 100 µM (inactive) | > 100 µM (inactive) | > 100 µM (inactive) | > 100 µM (inactive) | 99.1 µM (inactive) | 90.4 µM (inactive) | > 100 µM (inactive) | 56.9 µM (inactive) | > 100 µM (inactive) | > 100 µM (inactive) | > 100 µM (inactive) | > 100 µM (inactive) | > 100 µM (inactive) | 48.3 µM (inactive) | > 100 µM (inactive) | > 100 µM (inactive) | > 100 µM (inactive) | > 100 µM (inactive) | > 100 µM (inactive) |
| COc1ccc2c3c([nH]c2c1)[C@H](C=C(C)C)N1C(=O)[C@@H]2CCCN2C(=O)[C@@H]1C3 [FUMITREMORGIN] | 48 µM (inactive) | > 100 µM (inactive) | > 100 µM (inactive) | 56 µM (inactive) | > 100 µM (inactive) | > 100 µM (inactive) | > 100 µM (inactive) | 47 µM (inactive) | 38.7 µM (inactive) | > 100 µM (inactive) | > 100 µM (inactive) | 70.8 µM (inactive) | > 100 µM (inactive) | > 100 µM (inactive) | > 100 µM (inactive) | > 100 µM (inactive) | > 100 µM (inactive) | 29.6 µM (inactive) | > 100 µM (inactive) | > 100 µM (inactive) |
